Article PMC12444472, “BCI inhibits MKP3 by targeting the kinase-binding domain and disrupting ERK2 interaction” (The Journal of Biological Chemistry, 2025)
Changes are numbered by the printed parent chain.

What was measured:
Test in all cases: Phosphatase activity of MKP3 mutant toward pNPP with ERK2
Format in all cases: biochemical
Conditions in all cases: 1 µM enzyme, 1 µM ERK2, 8 mM pNPP, 2.5 μM BCI
MKP3 E81G = molecular target: T1, MKP3 E81G (Homo sapiens, UniProt Q16828, E81G)
T1 construct: MKP3(1–381) (MKP3^FL); made in house; host or cells: Escherichia coli BL21(DE3)
T1 sequence (Q16828 1-381 E81G): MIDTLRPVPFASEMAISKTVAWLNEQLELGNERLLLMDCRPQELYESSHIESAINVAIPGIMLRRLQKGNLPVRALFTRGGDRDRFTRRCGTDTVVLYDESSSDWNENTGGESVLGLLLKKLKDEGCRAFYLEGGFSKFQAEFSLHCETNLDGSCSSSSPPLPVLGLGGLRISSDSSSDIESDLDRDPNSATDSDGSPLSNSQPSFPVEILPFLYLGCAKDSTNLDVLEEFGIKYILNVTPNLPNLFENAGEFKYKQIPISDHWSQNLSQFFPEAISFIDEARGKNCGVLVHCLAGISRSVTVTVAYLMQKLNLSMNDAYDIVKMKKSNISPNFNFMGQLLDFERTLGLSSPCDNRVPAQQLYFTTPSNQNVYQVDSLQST
Method: (§1) The phosphatase activity of MKP3 toward pNPP was measured using continuous spectrophotometric assays, either in the absence or the presence of ERK2 at a 1:1 M ratio with MKP3. Experiments were conducted at 25 °C in a reaction mixture with a total volume of 1.8 ml, containing 50 mM Mops (pH 7.0), 100 mM NaCl, and 0.1 mM EDTA. MKP3 (1 μM) was preincubated with varying concentrations of the inhibitor BCI for 5 min before initiating the reaction by adding pNPP at concentrations ranging from 0 to 14 mM. Continuous absorbance changes were recorded using a PerkinElmer LAMBDA 45 spectrophotometer equipped with a magnetic stirrer in the cuvette holder. The production of p-nitrophenol was monitored at 410 nm using an extinction coefficient of 18,000 M^-1 cm^-1.
(§2) Figure S2. Inhibition of full-length MKP3 mutant activity by BCI. The phosphatase activities (v0) of full-length MKP3 and its mutants (E81G, R83G, R85G, R87G, and R89A) at 1 µM concentration were measured using continuous spectrophotometric assays with 8 mM pNPP as the substrate, in the presence of ERK2 (1 µM), either without or with 2.5 μM BCI. Data are presented as mean ± SD (n = 3). Reactions were performed at 25 °C in a total volume of 1.8 mL, in a buffer containing 50 mM MOPS (pH 7.0), 100 mM NaCl, and 0.1 mM EDTA.

MKP3 R85G = molecular target: T2, MKP3 R85G (Homo sapiens, UniProt Q16828, R85G)
T2 construct: MKP3(1–381) (MKP3^FL); made in house; host or cells: Escherichia coli BL21(DE3)
T2 sequence (Q16828 1-381 R85G): T1 sequence (Q16828 1-381 E81G) with G81E, R85G
Method: as §1, §2

MKP3 T87G = molecular target: T3, MKP3 T87G (Homo sapiens, UniProt Q16828, T87G)
T3 construct: MKP3(1–381) (MKP3^FL); made in house; host or cells: Escherichia coli BL21(DE3)
T3 sequence (Q16828 1-381 T87G): T1 sequence (Q16828 1-381 E81G) with G81E, T87G
Method: as §1, §2

MKP3 R89A = molecular target: T4, MKP3 R89A (Homo sapiens, UniProt Q16828, R89A)
T4 construct: MKP3(1–381) (MKP3^FL); made in house; host or cells: Escherichia coli BL21(DE3)
T4 sequence (Q16828 1-381 R89A): T1 sequence (Q16828 1-381 E81G) with G81E, R89A
Method: as §1, §2

MKP3 R83G = molecular target: T5, MKP3 R83G (Homo sapiens, UniProt Q16828, R83G)
T5 construct: MKP3(1–381) (MKP3^FL); made in house; host or cells: Escherichia coli BL21(DE3)
T5 sequence (Q16828 1-381 R83G): T1 sequence (Q16828 1-381 E81G) with G81E, R83G
Method: as §1, §2

- enzymatic activity upon BCI addition compared with MKP3^WT (MKP3 E81G): higher enzymatic activity than WT MKP3
- enzymatic activity upon BCI addition compared with MKP3^WT (MKP3 R85G): BCI inhibition comparable to MKP3^WT
- enzymatic activity upon BCI addition compared with MKP3^WT (MKP3 T87G): BCI inhibition comparable to MKP3^WT
- enzymatic activity upon BCI addition compared with MKP3^WT (MKP3 R89A): higher enzymatic activity than WT MKP3
- enzymatic activity upon BCI addition compared with MKP3^WT (MKP3 R83G): higher enzymatic activity than WT MKP3
Structure (SMILES): O=C1/C(=C/c2ccccc2)C(NC2CCCCC2)c2ccccc21 (centres unmarked) [BCI, (E)-2-benzylidene-3-(cyclohexylamino)-2,3-dihydro-1H-inden-1-one]
